The record followed here is patent US9278996B2, “Dolastatin-10 derivative, method of producing the same and anticancer drug composition containing the same” (CELLTRION, INC., priority 2012, dated 2016).

The assay has as its system breast cancer (BT-474). Kind of assay: Anticancer activity assay (WST-8 cell growth), BT-474. It is filed as cell-based. The note with it: Homo sapiens, BT-474, 96 h, read-out: IC50 (nM) BT-474. The procedure: The compounds of the present invention were assayed for inhibitory activity against 7 cancer cell lines as breast cancer (BT-474), human epithelial cancer (A-431), non-small cell lung cancer (NCI-H460), colon cancer (HT-29), colon cancer (SW-620), breast cancer (MDA-MB-231) and breast cancer (MCF-7).
Briefly, a suspension of each cancer cell line was serially diluted, and plated at a density of 2˜3×10^3 cells/well into 96-well microplates, followed by incubation at 37° C. for 4 day in a 5% CO2 atmosphere. Cell growth in a monolayer was measured using WST-8 reagemt (Dojindo, Japan).
IC50 values of the compounds against the cancer cell lines were calculated as compound concentrations at which the cells were grown by 50% OD of the control.
For orientation: Tetrazolium assays rely on reduction of a dye to a coloured formazan, in cell work by metabolically active cells.
The IC50 is the concentration needed to halve the response being measured. On to `CC[C@H](C)[C@@H]([C@@H](CC(=O)N1C[C@H](OC)C[C@H]1[C@H](OC)[C@@H](C)C(=O)N[C@H](C)C(N)c1ccccc1)OC)N(C)C(=O)[C@@H](NC(=O)[C@H](C(C)C)N(C)C)C(C)C` (mixture of isomers) [Compound I-36, (2S)—N-((3R,4S)-1-((2S)-2-((1R,2R)-3-(((2R)-1-amino-1-phenylpropan-2-yl)amino)-1-methoxy-2-methyl-3-oxopropyl)-4-methoxypyrrolidin-1-yl)-3-methoxy-5-methyl-1-oxoheptan-4-yl)-2-((S)-2-(dimethylamino)-3-methylbutaneamido)-N,3-dimethylbutanamide], for which the concentration for half-maximal inhibition (IC50) turned out to be 0.51 nM.
Next, `CC[C@H](C)[C@@H]([C@@H](CC(=O)N1C[C@H](OC)C[C@H]1[C@H](OC)[C@@H](C)C(=O)N[C@@H](C)C(N)c1ccccc1)OC)N(C)C(=O)[C@@H](NC(=O)[C@H](C(C)C)N(C)C)C(C)C` (mixture of isomers) [Compound I-37, (2S)—N-((3R,4S)-1-((2S,4R)-2-((1R,2R)-3-(((2S)-1-amino-1-phenylpropan-2-yl)amino)-1-methoxy-2-methyl-3-oxopropyl)-4-methoxypyrrolidin-1-yl)-3-methoxy-5-methyl-1-oxoheptan-4-yl)-2-((S)-2-(dimethylamino)-3-methylbutaneamido)-N,3-dimethylbutanamide]: 2.82 nM; `CC[C@H](C)[C@@H]([C@@H](CC(=O)N1C[C@H](OC)C[C@H]1[C@H](OC)[C@@H](C)C(=O)N[C@H](C)C(=O)c1ccccc1)OC)N(C)C(=O)[C@@H](NC(=O)[C@@H](NC)C(C)C)C(C)C` (stereo in doubt) [Compound I-6, (2 S)—N-((3R,4S)-3-methoxy-1-((2R,4R)-4-methoxy-2-((1R,2R)-1-methoxy-2-methyl-3-oxo-3-(((R)-1-oxo-1-phenylpropan-2-yl)amino)propyl)pyrrolidin-1-yl)-5-methyl-1-oxoheptan-4-yl)-N,3-dimethyl-2-((S)-3-methyl-2-(methylamino)butaneamido)butanamide]: 0.32 nM.
Next, `CC[C@H](C)[C@@H]([C@@H](CC(=O)N1C[C@H](OC)C[C@@H]1[C@H](OC)[C@@H](C)C(=O)NCCc1c(F)cccc1F)OC)N(C)C(=O)[C@@H](NC(=O)[C@@H](NC)C(C)C)C(C)C` [Compound I-1, (S)—N-((3R,4S,5S)-1-((2R,4R)-2-((1R,2R)-3-((2,6-difluorophenethyl)amino)-1-methoxy-2-methyl-3-oxopropyl)-4-methoxypyrrolidin-1-yl)-3-methoxy-5-methyl-1-oxoheptan-4-yl)-N,3-dimethyl-2-((S)-3-methyl-2-(methylamino)butaneamido)butanamide]: 0.12 nM; `CC[C@H](C)[C@@H]([C@@H](CC(=O)N1C[C@H](OC)CC1[C@H](OC)[C@@H](C)C(=O)NCCc1cccc(F)c1)OC)N(C)C(=O)[C@@H](NC(=O)[C@@H](NC)C(C)C)C(C)C` (stereo partly drawn) [Compound I-2]: 0.7 nM; `CC[C@H](C)[C@@H]([C@@H](CC(=O)N1C[C@H](OC)C[C@H]1[C@H](OC)[C@@H](C)C(=O)N[C@@H](C)C(=O)c1ccccc1)OC)N(C)C(=O)[C@@H](NC(=O)[C@@H](NC)C(C)C)C(C)C` [Compound I-7, (2 S)—N-((3R,4S)-3-methoxy-1-((2S,4R)-4-methoxy-2-((1R,2R)-1-methoxy-2-methyl-3-oxo-3-(((S)-1-oxo-1-phenylpropan-2-yl)amino)propyl)pyrrolidin-1-yl)-5-methyl-1-oxoheptan-4-yl)-N,3-dimethyl-2-((S)-3-methyl-2-(methylamino)butaneamido)butanamide]: 0.62 nM.
For the compound `CC[C@H](C)[C@@H]([C@@H](CC(=O)N1C[C@@H](OC)C[C@@H]1[C@H](OC)[C@@H](C)C(=O)NCCc1ccccc1)OC)N(C)C(=O)[C@@H](NC(=O)[C@H](C(C)C)N(C)C)C(C)C` [Compound I-10, (S)-2-((S)-2-(dimethylamino)-3-methylbutaneamido)-N-((3R,4S,5S)-3-methoxy-1-((2R,4S)-4-methoxy-2-((1R,2R)-1-methoxy-2-methyl-3-oxo-3-(phenethylamino)propyl)pyrrolidin-1-yl)-5-methyl-1-oxoheptan-4-yl)-N,3-dimethylbutanamide], the IC50 worked out at 0.24 nM.
In the case of `CC[C@H](C)[C@@H]([C@@H](CC(=O)N1C[C@H](OC)C[C@@H]1[C@H](OC)[C@@H](C)C(=O)N[C@H](C)C(=O)c1ccc(F)cc1)OC)N(C)C(=O)[C@@H](NC(=O)[C@@H](NC)C(C)C)C(C)C` [Compound I-11, (S)—N-((3R,4S,5 S)-1-((2R,4R)-2-((1R,2R)-3-(((R)-1-(4-fluorophenyl)-1-oxopropan-2-yl)amino)-1-methoxy-2-methyl-3-oxopropyl)-4-methoxypyrrolidin-1-yl)-3-methoxy-5-methyl-1-oxoheptan-4-yl)-N,3-dimethyl-2-((S)-3-methyl-2-(methylamino)butaneamido)butanamide], the half-maximal inhibitory concentration (IC50) amounted to 0.78 nM.
`CC[C@H](C)[C@@H]([C@@H](CC(=O)N1C[C@H](OC)C[C@@H]1[C@H](OC)[C@@H](C)C(=O)N[C@H](C)C(=O)c1cccc(OC)c1)OC)N(C)C(=O)[C@@H](NC(=O)[C@@H](NC)C(C)C)C(C)C` [Compound I-14, (S)—N-((3R,4S,5S)-3-methoxy-1-((2R,4R)-4-methoxy-2-((1R,2R)-1-methoxy-3-(((R)-1-(3-methoxyphenyl)-1-oxopropan-2-yl)amino)-2-methyl-3-oxopropyl)pyrrolidin-1-yl)-5-methyl-1-oxoheptan-4-yl)-N,3-dimethyl-2-((S)-3-methyl-2-(methylamino)butaneamido)butanamide]: the concentration for half-maximal inhibition (IC50) came out at 0.29 nM.
Next, `CC[C@H](C)[C@@H]([C@@H](CC(=O)N1C[C@H](OC)C[C@@H]1[C@H](OC)[C@@H](C)C(=O)N[C@H](C)C(=O)c1ccc(OC)cc1)OC)N(C)C(=O)[C@@H](NC(=O)[C@@H](NC)C(C)C)C(C)C` [Compound I-15, (S)—N-((3R,4S,5S)-3-methoxy-1-((2R,4R)-4-methoxy-2-((1R,2R)-1-methoxy-3-(((R)-1-(4-methoxyphenyl)-1-oxopropan-2-yl)amino)-2-methyl-3-oxopropyl)pyrrolidin-1-yl)-5-methyl-1-oxoheptan-4-yl)-N,3-dimethyl-2-((S)-3-methyl-2-(methylamino)butaneamido)butanamide]: 0.51 nM; `CC[C@H](C)[C@@H]([C@@H](CC(=O)N1C[C@H](OC)C[C@@H]1[C@H](OC)[C@@H](C)C(=O)N[C@@H](C)C(=O)c1cc(F)cc(F)c1)OC)N(C)C(=O)[C@@H](NC(=O)[C@@H](NC)C(C)C)C(C)C` [Compound I-16, (S)—N-((3R,4S,5S)-1-((2R,4R)-2-((1R,2R)-3-(((S)-1-(3,5-difluorophenyl)-1-oxopropan-2-yl)amino)-1-methoxy-2-methyl-3-oxopropyl)-4-methoxypyrrolidin-1-yl)-3-methoxy-5-methyl-1-oxoheptan-4-yl)-N,3-dimethyl-2-((S)-3-methyl-2-(methylamino)butaneamido)butanamide]: 0.65 nM.
In the case of `CC[C@H](C)[C@@H]([C@@H](CC(=O)N1C[C@H](OC)C[C@@H]1[C@H](OC)[C@@H](C)C(=O)N[C@@H](C)C(=O)c1c(F)cccc1F)OC)N(C)C(=O)[C@@H](NC(=O)[C@@H](NC)C(C)C)C(C)C` [Compound I-17, (S)—N-((3R,4S,5S)-1-((2R,4R)-2-((1R,2R)-3-(((S)-1-(2,6-difluorophenyl)-1-oxopropan-2-yl)amino)-1-methoxy-2-methyl-3-oxopropyl)-4-methoxypyrrolidin-1-yl)-3-methoxy-5-methyl-1-oxoheptan-4-yl)-N,3-dimethyl-2-((S)-3-methyl-2-(methylamino)butaneamido)butanamide] it was 0.25 nM; in that of `CC[C@H](C)[C@@H]([C@@H](CC(=O)N1C[C@H](OC)C[C@@H]1[C@H](OC)[C@@H](C)C(=O)N[C@H](C)C(=O)c1c(F)cccc1F)OC)N(C)C(=O)[C@@H](NC(=O)[C@@H](NC)C(C)C)C(C)C` [Compound I-18, (S)—N-((3R,4S,5S)-1-((2R,4R)-2-((1R,2R)-3-(((R)-1-(2,6-difluorophenyl)-1-oxopropan-2-yl)amino)-1-methoxy-2-methyl-3-oxopropyl)-4-methoxypyrrolidin-1-yl)-3-methoxy-5-methyl-1-oxoheptan-4-yl)-N,3-dimethyl-2-((S)-3-methyl-2-(methylamino)butaneamido)butanamide], 0.88 nM.
Next, `CC[C@H](C)[C@@H]([C@@H](CC(=O)N1C[C@H](OC)C[C@@H]1[C@H](OC)[C@@H](C)C(=O)N[C@H](C)/C(=N\O)c1cccc(OC)c1)OC)N(C)C(=O)[C@@H](NC(=O)[C@@H](NC)C(C)C)C(C)C` [Compound I-19, (S)—N-((3R,4S,5 S)-1-((2R,4R)-2-((1R,2R)-3-(((R,Z)-1-(hydroxyimino)-1-(3-methoxyphenyl)propan-2-yl)amino)-1-methoxy-2-methyl-3-oxopropyl)-4-methoxypyrrolidin-1-yl)-3-methoxy-5-methyl-1-oxoheptan-4-yl)-N,3-dimethyl-2-((S)-3-methyl-2-(methylamino)butaneamido)butanamide]: 0.09 nM.
On to `CC[C@H](C)[C@@H]([C@@H](CC(=O)N1C[C@H](OC)C[C@@H]1[C@H](OC)[C@@H](C)C(=O)N[C@H](C)C(=NO)c1cccc(OC)c1)OC)N(C)C(=O)[C@@H](NC(=O)[C@H](C(C)C)N(C)C)C(C)C` [Compound I-20, (S)-2-((S)-2-(dimethylamino)-3-methylbutaneamido)-N-((3R,4S,5S)-1-((2R,4R)-2-((1R,2R)-3-(((R)-1-(hydroxyimino)-1-(3-methoxyphenyl)propan-2-yl)amino)-1-methoxy-2-methyl-3-oxopropyl)-4-methoxypyrrolidin-1-yl)-3-methoxy-5-methyl-1-oxoheptan-4-yl)-N,3-dimethylbutanamide], for which the IC50 came to 0.47 nM.
